Source: the supplement of paper PMC6723410

System: GUMC-403
Test: viability at highest tested concentration (max response) relative to DMSO (% of DMSO control); higher = less cytotoxic
Details: library / dose series: MIPE library, 11-point 1:3 dilution, 48 h
Method in brief: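 Each figure stands for viability at the highest tested concentration compared with vehicle control. It was measured by CellTiter-Glo luminescence on a ViewLux after 48 h of exposure to 23 nL of pinned compound, with vehicle wells taken as 100% and empty wells as 0%. The cells were patient-derived GUMC-403 papilloma cells grown by conditional reprogramming, plated at 700/well in 5 μL F + Y medium in 1536-well plates.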

Structure (SMILES)	viability (top concentration 46.1 µM)	further results
Cn1cc(/C=C2\C(=O)Nc3cccnc32)c2ccccc21	132	
Nc1cccc2c1C(=O)N(C1CCC(=O)NC1=O)C2=O (stereo not given)	107	
Cc1cnc(Nc2ccc(CN3CCOCC3)cc2)nc1Nc1cccc([S+](=O)([O-])NC(C)(C)C)c1	31.1	
O=C(O)[C@@H](c1ccc(OCc2ccc3ccccc3n2)cc1)C1CCCC1	108	
CC(=O)N1CCN(c2ccc(OCc3nn(C)c(C)c3-c3cccc4c(CCCOc5cc(C)c(Cl)c(C)c5)c(C(=O)O)n(Cc5cccnc5)c34)cc2)CC1	137	
CC(C)C1CCC(C(=O)N[C@H](Cc2ccccc2)C(=O)O)CC1 (stereo not given in full)	85.9	
COC1=CC=C2C(=CC=NC2=C1)OC3=CC=C(NC(=O)\C4=C(C)\N(CC(C)(C)O)N(C4=O)C5=CC=CC=C5)C=C3F	80.3	
CCC1(c2ccc(N)cc2)CCC(=O)NC1=O (stereo not given)	93.1	
NC(=O)c1cccc(-c2cc(Nc3ccc(OC(F)(F)F)cc3)ncn2)c1	117	
CCCCOc1ccc(C(=O)Nc2ccc(F)cc2F)cc1	101	
CC(C)C(C)/C=C/C(C)C1CCC2C3=CC=C4CC(O)CCC4(C)C3CCC21C (stereo not given)	130	
CNC1[C@@H](O)C(O[C@@H]2C(O)C(O[C@H]3O[C@H]([C@@H](C)NC)CC[C@H]3N)[C@@H](N)C[C@H]2N)OC[C@]1(C)O (stereo not given in full)	101	
O=C(c1ccc(F)c(F)c1Nc1ccc(I)cc1F)N1CC(O)([C@@H]2CCCCN2)C1	52.2	
Clc1ccc(C(Cn2ccnc2)OCc2c(Cl)cccc2Cl)c(Cl)c1 (stereo not given)	113	
OC1=CC(=C(C=C1)\C2=C(O)\C(=O)C3=C(O2)C=C(O)C=C3O)O	93.9	
CN(CCOc1ccc(NS(C)(=O)=O)cc1)CCc1ccc(NS(C)(=O)=O)cc1	127	
NCCCCNCCCN	121	
Oc1cc2c(cc1O)C1c3ccc(O)c(O)c3OCC1(O)C2 (stereo not given)	129	
COC(=O)c1ccc2c(c1)NC(=O)/C2=C(\Nc1ccc(N(C)C(=O)CN2CCN(C)CC2)cc1)c1ccccc1	112	
CC(C)C(=O)Nc1ccc([N+](=O)[O-])c(C(F)(F)F)c1	85.7	

Structure (SMILES)	viability (top concentration 46.1 µM)	further results
C[C@@H](Oc1cc(-n2cnc3ccc(CN4CCN(C)CC4)cc32)sc1C(N)=O)c1ccccc1C(F)(F)F	47.4	
CN1C[C@H]2c3ccccc3Oc3ccc(Cl)cc3[C@@H]2C1	91.4	
Cc1cccc(-c2[nH]c(C(C)(C)C)nc2-c2ccc3nccnc3c2)n1	140	
COc1cc(/C=C/C(=O)CC(=O)/C=C/c2ccc(O)c(OC)c2)ccc1O		viability (top concentration 92.2 µM): 94.4
CC(C)(O)CCc1ccc(OCc2cc(-c3cccc(OC(F)F)c3)c3ncccc3c2)cc1	143	
CC[C@H](CC[C@@H](C)[C@H]1CC[C@H]2[C@@H]3C\C=C/4C[C@@H](O)CC[C@]4(C)[C@H]3CC[C@]12C)C(C)C	101	
CN(C)[C@H]\1[C@@H]2[C@@H](O)[C@@H]\3C(=C)C4=C(C(=CC=C4)O)C(=O)C3=C(\O)[C@@]2(O)C(=O)\C(=C1O)C(N)=O	96.5	
Cc1cc(Nc2cc(CN3CCOCC3)c3nc(C)c(Cc4ccc(Cl)cc4F)n3n2)[nH]n1	74.1	
COC1=CC=C(C(=C1)OC(C)C)C/2=N/[C@@H]([C@@H](N2C(=O)N3CCNC(=O)C3)C4=CC=C(Cl)C=C4)C5=CC=C(Cl)C=C5	121	
O=C1CCC[C@@H]2[C@H]3CCC[N+]4([O-])CCC[C@@H](CN12)[C@@H]34 (stereo not given in full)	106	
COc1ccc(C(=O)N2CCCC2=O)cc1	119	
CCCCCNC(=O)N1CCC(CN(Cc2ccc(Cl)cc2)Cc2ccc([N+](=O)[O-])s2)C1 (stereo not given)	83.4	
OC1CCC(Nc2ncc3nc(Nc4c(F)cc(F)cc4F)n([C@@H]4CCOC4)c3n2)CC1 (stereo not given in full)	95.5	
CCCCN(CCCC)CCC(O)c1cc2c(Cl)cc(Cl)cc2c2cc(C(F)(F)F)ccc12 (stereo not given)	107	
CCNc1cc(NC2CCC(O)CC2)nc(Nc2ccc3c(ccn3Cc3ccccc3)c2)n1 (stereo not given)	99.8	
CCN1CCN(C(=O)Cc2ccc(Nc3ncc(F)c(Nc4ccc(C(=O)Nc5ccccc5Cl)cc4)n3)cc2)CC1	55.5	
COc1cc(Cl)cn2c(-c3cccc(NC4CNC4)n3)cnc12	133	
CC(C)NCC(O)COc1ccc(CCOCC2CC2)cc1 (stereo not given)	117	
O=P(O)(O)C(O)(Cn1ccnc1)P(=O)(O)O		viability (top concentration 23 µM): 122
CC(C)Nc1cc(C(F)(F)F)cc2nc(NC(=O)c3cccnc3)nn12	113	
